# Measured values from a melting point compilation (Tetko et al.).
# Conditions: a range is the spread between reports
row,Structure (SMILES),melting point [°C]
1,O=C(O)c1c(F)c(F)c(F)c(F)c1F,101 to 102
2,CCC(=O)C(CC(C)N(C)C)(c1ccccc1)c1ccccc1 (stereo unspecified),98.8 to 102
3,CC(=O)c1ccc(C#N)cc1,57 to 59
4,CS(=O)(=O)OCCCCOS(C)(=O)=O,116
5,O=C1OC(=O)C2C1C1(Cl)C(Cl)=C(Cl)C2(Cl)C1(Cl)Cl (stereo unspecified),233 to 237
6,CCCCCCCCCCCCCl,-9.3 to -9
7,CC1(C)OC(=O)CC(=O)O1,94 to 98
8,N#Cc1ccc(N)cc1,84 to 85
9,Cc1ccccc1O,29.8 to 33
10,c1ccc(-c2ccccc2)cc1,69 to 71
11,O=C1CCC(=O)N1Cl,148 to 150
12,COc1ccc2c3c1O[C@H]1[C@@H](O)C=C[C@H]4[C@@H](C2)N(C)CC[C@@]341,155 to 158
13,O=C(CCl)c1ccc(Cl)cc1,101 to 102
14,CCC1(c2ccccc2)C(=O)NC(=O)NC1=O,174 to 176
15,Oc1ccc(Cl)cc1,41 to 44
16,N#Cc1cccnc1,50 to 51
17,Clc1ccc(C(c2ccc(Cl)cc2)C(Cl)(Cl)Cl)cc1,108 to 110
18,FC(F)(F)C(F)(F)C(F)(F)C(F)(F)C(F)(F)C(F)(F)C(F)(F)C(F)(F)F,-25 to -23.2
19,Fc1cc(F)c(F)c(F)c1F,-48 to -47.3
20,CN1C(=O)OC(C)(C)C1=O,46 to 47
21,CC(CO)(CO)[N+](=O)[O-],150
22,ClCCOCCCl,-51.9 to -47
23,CC(C)CCCCC(C)C,-55 to -54
24,ClCc1ccccc1Cl,-17 to -13

row,Structure (SMILES),melting point [°C]
1,CC12CCC(C(=O)C1=O)C2(C)C (stereo unspecified),199 to 200
2,Oc1c(Br)cccc1Br,55 to 56.5
3,N#Cc1ccccc1N,47 to 51
4,CN(C)C(=O)Nc1ccc(Cl)cc1,170 to 174
5,Nc1cccnc1,61 to 64.5
6,Clc1ccccc1Cl,-18 to -16.7
7,c1ccoc1,-85.6 to -85
8,NC(=O)OCc1ccccc1,87 to 88
9,Nc1cc(Cl)ccc1O,140 to 143
10,CC(C)c1ccc(O)cc1,60 to 62.3
11,O=C1OCc2c(Cl)c(Cl)c(Cl)c(Cl)c21,208 to 210
12,C=CCI,-99.3 to -99
13,NCCCNCCCCNCCCN,28 to 29
14,c1ccc2c(c1)CCCC2,-36 to -31
15,N#Cc1c2ccccc2cc2ccccc12,175 to 177
16,C=C,-169
17,O=[N+]([O-])c1ccc(O)c(Cl)c1,106 to 110
18,Cc1ccc(Cl)cc1[N+](=O)[O-],36 to 39
19,O=C1CCCCCCCCC1,24 to 28
20,CCOC(=O)C(C(=O)OCC)C(=O)OCC,28 to 29
21,CCCCCc1cc(O)c2c(c1)OC(C)(C)c1ccc(C)cc1-2,76.5 to 77
22,Cc1ccc(O)c(C)c1,22 to 27
23,O=[N+]([O-])c1cccc2cccnc12,88 to 90
24,CC(C)=CCN1CCC2(C)c3cc(O)ccc3CC1C2C (stereo unspecified),146

row,Structure (SMILES),melting point [°C]
1,CC(Br)CBr (stereo unspecified),-55.5 to -55
2,N#CCc1ccccc1Cl,23 to 24
3,N#C/C=C/c1ccccc1,19 to 22
4,CCCCCCC#N,-64 to -63
5,Brc1ccc(Br)c(Br)c1,42 to 44.5
6,O=C1C=CC(=O)C=C1,114 to 116
7,NCCCCNCCCN,23.5 to 24
8,O=[N+]([O-])c1ccccc1,5 to 6
9,O=C(O)Cc1ccccc1,76 to 79
10,CC(=O)C(C)(C)C,-53 to -52
11,CC1CNC(C)CN1 (stereo unspecified),114 to 118
12,CCCCCCCBr,-58 to -56
13,CCCCCCCC/C=C\CCCCCCCCCCCC(N)=O,77.5 to 79
14,Cc1cccc(C)c1,-48 to -47
15,CCCCCCCCCCCCCCO,39 to 40
16,N#CCCc1ccccc1,-2 to -1
17,C=CCCCCCCCCCCCCCCC,11 to 11.5
18,CCC(=O)c1ccccc1,18 to 19
19,CC(C)OC(=O)C=CC(=O)OC(C)C,2 to 2.1
20,CC,-183
21,COc1ccccc1N,5 to 6.2
22,O=C(O)C(F)(F)F,-15.2 to -15
23,c1ccc2sccc2c1,30 to 32

# More lines, now with the values ahead:
row,melting point [°C],Structure (SMILES)
1,34 to 34.5,c1ccc2c(c1)CCc1ccccc1-2
2,140 to 141,Cc1ccc(OCC(=O)O)cc1
3,101 to 103,CCCCCCCCOc1ccc(C(=O)O)cc1
4,107 to 110,CC(=O)c1ccc(O)cc1
5,32 to 36,CC(C)(O)c1ccccc1
6,78 to 79,COc1ccc2c(c1)CCCC2=O
7,4 to 4.5,O=C1C=CCO1
8,112 to 114,ClC(c1ccccc1)(c1ccccc1)c1ccccc1
9,41 to 43.5,c1ccc(CSc2ccccc2)cc1
10,66 to 67,Clc1cccnc1Cl
11,43 to 44,COC(=O)c1ccc(Cl)cc1
12,95 to 96,COC(=O)c1ccc([N+](=O)[O-])cc1
13,49.5 to 50,Cc1ccc(C)n1-c1ccccc1
14,173 to 176,CC(C(=O)O)(c1ccccc1)c1ccccc1
15,139 to 142,O=C(O)c1ccc([N+](=O)[O-])cc1Cl
16,-85 to -84.8,CCCCCCC(C)CC (stereo unspecified)
17,113 to 116,NC(=O)c1cccc(N)c1
18,86 to 87,CC(CC(=O)O)CC(=O)O
19,215 to 218,c1ccc2cc3ccccc3cc2c1
20,146 to 149,O=C(O)Cc1ccccc1O
21,51 to 54,Nc1cc(Br)ccc1Br
22,57 to 58,CCOC(=O)c1ccc([N+](=O)[O-])cc1
23,-59.5 to -57.8,CC(C)(C)c1ccccc1
24,130 to 133,O=C(O)c1cc(F)ccc1F

row,melting point [°C],Structure (SMILES)
1,20 to 20.7,CCOc1ccccc1C(=O)O
2,36.5 to 38,O=C1CCOc2ccccc21
3,-79 to -74.8,CCCCOCCO
4,68 to 71,Cc1ccc(S(=O)(=O)Cl)cc1
5,-46.5 to -46,Clc1ccccn1
6,53 to 54,CC(=O)Oc1ccc(C(C)=O)cc1
7,-64 to -63,CCNc1ccccc1
8,143 to 144,Cc1ncc[nH]1
9,-23 to -22,CCOC(=O)CC#N
10,194 to 195,CSc1ccc(C(=O)O)cc1
11,34 to 35,Clc1ccc(Cl)c(Br)c1
12,242 to 245,O=C(/C=C/c1ccc2ccccc2c1)/C=C/c1ccc2ccccc2c1
13,-72 to -71.5,Cc1ccccc1C(C)C
14,23 to 25,CCCCCCCCCCCC(C)O (stereo unspecified)
15,102 to 104,NNc1cc(Cl)ccc1Cl
16,40 to 41,CCN(CC)c1ccc(C=O)cc1
17,28 to 30,c1ccc2nccnc2c1
18,99 to 102,CCCCCCCCOC(=O)c1cc(O)c(O)c(O)c1
19,50 to 54,O=[N+]([O-])c1ccccc1I
20,-102,C=CCCCCCC
21,-86.3 to -82,C=Cc1cccc(C)c1
22,214 to 215,O=C(O)c1cc(-c2ccccc2)nc2ccccc12
23,-1 to 0,COc1cccc(N)c1
24,38 to 38.5,COc1cccc([N+](=O)[O-])c1

row,melting point [°C],Structure (SMILES)
1,-111,CC(F)(F)F
2,6 to 7,CCCCCCCCCCO
3,151 to 154,O/N=C(\c1ccccc1)C(O)c1ccccc1 (stereo unspecified)
4,48 to 52,O=C(O)CCCc1ccccc1
5,-105,COCOC
6,151 to 153,Cc1ccc(O)c(C(=O)O)c1
7,-41 to -40.6,CC1CCC(=O)CC1
8,131 to 132,O=C1OC(=O)c2ccccc21
9,166 to 167,CCn1ccc(NS(=O)(=O)c2ccc(N)cc2)nc1=O
10,130 to 132,O=C(O)Cc1cccc(O)c1
11,154,O=C1C=Cc2cccc3cccc1c23
12,132 to 134,Oc1ccc2ccccc2c1/N=N/c1ccccc1
13,220 to 224,O=C(O)c1cc(Cl)cc(Cl)c1O
14,30 to 31,O=[N+]([O-])c1ccco1
15,-149,CCC1CC1
16,179 to 180,NS(=O)(=O)c1ccc([N+](=O)[O-])cc1
17,60 to 60.8,OC(c1ccccc1)c1ccc(Cl)cc1 (stereo unspecified)
18,59 to 62,O=[N+]([O-])c1cccc(-c2ccccc2)c1
19,89.3 to 91,Cn1c2ccccc2c2ccccc21
20,4.5 to 5,Brc1cscc1Br
21,51 to 52,O=S(=O)(Cl)c1ccc(Cl)cc1
22,-38.2 to -38,CC(C)(C)I
23,-80.9 to -80,CCCCCCOC(C)=O
24,71 to 72.5,COc1ccc(OC)c([N+](=O)[O-])c1

row,melting point [°C],Structure (SMILES)
1,236 to 237,c1ccc([Si](c2ccccc2)(c2ccccc2)c2ccccc2)cc1
2,218,Oc1cc(O)cc(O)c1
3,270 to 275,O=C1CCC(N2C(=O)c3ccccc3C2=O)C(=O)N1 (stereo unspecified)
4,12 to 13.5,CC(=O)c1cccnc1
5,41 to 43,Cc1cccc(N)n1
6,-2 to -0.8,Nc1ccc(F)cc1
7,-74 to -73.6,FC(Br)(Br)Br
8,50 to 55,O=C(/C=C1\Cc2ccccc21)c1ccccc1
9,45.8 to 47,Nc1ccccc1Oc1ccccc1
10,94.5 to 95,O=C(C(=O)c1ccccc1)c1ccccc1
11,112 to 114,Brc1ccc2c(c1)Cc1ccccc1-2
12,101 to 104,CC(C)(CC(=O)O)CC(=O)O
13,48.5 to 49,COC(=O)c1cc(Cl)ccc1[N+](=O)[O-]
14,57.5 to 58,CCCCOC(=O)c1ccc(N)cc1
15,87.8 to 89.5,O=Cc1cccc(C=O)c1
16,118 to 120,c1ccc2c3c([nH]c2c1)CCCC3
17,146 to 147,Cn1ccnc1S
18,148,NNC(=O)c1ccccc1O
19,58 to 59,O=Cc1cccc([N+](=O)[O-])c1
20,126 to 129,COc1cc(C=CC(=O)c2ccccc2O)ccc1O
21,27 to 28,CNC(C)=O
22,216 to 217,Oc1ccc2ccccc2c1-c1c(O)ccc2ccccc12
23,-165 to -162,C=CCCC
